Legend:
[1] = system: CHS mouse model; experiment: Efficacy test in CHS mouse model (FITC sensitization, right ear thickness); format: in vivo, C57BL/6N mice; settings: 3 μg/mouse
Description: Construction of CHS mouse model: 6- to 8-week-old female C57BL/6N mice (Beijing Vital River Laboratory Animal Technology Co., Ltd.) were selected, and all mice were shaved off abdominal hair using a small animal hair clipper. 400 μL of the sensitizer was pipetted with a micropipette and applied evenly to the abdomen of the mice for epidermal sensitization. After application, the mice were held for 3-5 s and the solvent was allowed to evaporate from the skin as clean as possible. The specific preparation method for the sensitizer was: 0.5 g of FITC (fluorescein isothiocyanate; sigma-Aldrich) powder was weighed and fully dissolved in a solvent of 50 mL of acetone (SinoPharm reagent) and 50 mL of DBP (dibutyl phthalate; sigma-Aldrich) in equal proportion to give the sensitizer with the FITC content of 0.5%. On the 6th day after sensitization, the thickness of the right ear of the mice was measured with a dial thickness gauge as a baseline value, then a freshly prepared sensitizer was pipetted with a micropipette and applied evenly inside and outside of the right ear of the mice respectively for epidermal stimulation, and 10 μL of the sensitizer was applied on each side. 24 h after stimulation, the thickness of the right ear of the mice was measured again with a dial thickness gauge to obtain the thickness change of the right ear of the mice, A thickness of right ear=(thickness of right ear 24 h after stimulation)−(baseline value of thickness of right ear).
Therapeutic regimen for CHS model mouse: mice were divided into a blank group, a negative control group, a positive control group, and an experimental group. […] The drug was administered by one-time intraperitoneal injection 1 h before the right ear epidermal stimulation.

[2] = molecular target: CYP2D6 (Homo sapiens (Human), UniProt P10635); experiment: Inhibition of CYP2D6 enzymatic activity in human liver microsomes; format: in vitro ADME; settings: human liver microsome, substrate dextromethorphan, 20 min
CYP2D6, sequence (P10635 whole entry): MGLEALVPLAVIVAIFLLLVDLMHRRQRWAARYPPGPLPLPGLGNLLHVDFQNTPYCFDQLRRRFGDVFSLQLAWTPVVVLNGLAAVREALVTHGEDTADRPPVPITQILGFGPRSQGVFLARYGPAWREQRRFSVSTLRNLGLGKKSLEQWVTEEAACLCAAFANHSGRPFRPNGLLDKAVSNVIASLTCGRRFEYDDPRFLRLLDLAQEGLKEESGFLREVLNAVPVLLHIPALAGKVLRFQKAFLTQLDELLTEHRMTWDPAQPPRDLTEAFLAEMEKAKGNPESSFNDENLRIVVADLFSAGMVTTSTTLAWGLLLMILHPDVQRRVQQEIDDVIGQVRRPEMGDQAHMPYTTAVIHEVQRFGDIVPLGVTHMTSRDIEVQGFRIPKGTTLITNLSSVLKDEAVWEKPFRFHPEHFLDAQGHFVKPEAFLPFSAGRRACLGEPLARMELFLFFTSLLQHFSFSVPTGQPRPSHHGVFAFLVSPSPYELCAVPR
Description: The inhibition of CYP2C9 and CYP2D6 activity by the compound of the present invention was determined using the following method.
• 1. Human liver microsome (Corning 452117) • 2. NADPH (Solarbio 705Y021) • 3. Positive substrates diclofenac (Sigma SLBV3438) and dextromethorphan (TRC 3-EDO-175-1) • 4. Positive inhibitors sulfaphenazole (D. Ehrenstorfer GmbH 109012) and quinidine (TCI WEODL-RE) • 5. AB Sciex Triple Quad 5500 liquid chromatography-mass spectrometry system
• 1. Preparation of 100 mM phosphate-buffered saline (PBS): 7.098 g Na2HPO4 was weighed. 500 mL pure water was added. The mixture was dissolved by sonication to give solution A. 3.400 g KH2PO4 was weighed. 250 mL pure water was added. The mixture was dissolved by sonication to give solution B. The solution A was placed in a stirrer, and the solution B was slowly added until the pH reached 7.4, so that the 100 mM PBS buffer was prepared. • 2. A 10 mM NADPH solution was prepared with a 100 mM PBS buffer. A 10 mM stock solution of the compound of the present invention was diluted with DMSO to give a compound working solution at a concentration of 200×(6000, 2000, 600, 200, 60, 20, and 0 μM). […]
The reduction of metabolite production in the treatment groups versus the control group was compared by the peak area ratios of the sample to the internal standard, and the IC50 value was calculated using Excel XLfit 5.3.1.3.

C[C@]12C=CC(=O)C=C1CC[C@@H]1[C@@H]2[C@@H](O)C[C@@]2(C)[C@H]1C[C@H]1O[C@@H](c3ccc(Cc4cc(N)c5c(c4)CCO5)cc3)O[C@]12C(=O)CO [Compound 009, (6aR,6bS,7S,8aS,8bS,10R,11aR,12aS,12bS)-10-(4-((7-amino-2,3-dihydrobenzofuran-5-yl)methyl)phenyl)-7-hydroxy-8b-(2-hydroxyacetyl)-6a,8a-dimethyl-6a,6b,7,8,8a,8b,11a,12,12a,12b-decahydro-1H-naphtho[2′,1′:4,5]indeno[1,2-d][1,3]dioxolan-4(2H)-one]
thickness of the right ear in CHS mice compared to the negative control group ([1]; one-time intraperitoneal injection 1 h before right ear stimulation, measured 24 h after stimulation): significant decrease | efficacy compared with positive reference compound a at the same dose ([1]; one-time intraperitoneal injection, CHS mice, right ear thickness): superior in efficacy to the positive reference compound a | IC50 [2]: > 50 µM

Source: patent US20240307415A1, “STEROID COMPOUND, AND PHARMACEUTICAL COMPOSITION THEREOF AND USE THEREOF” (JIANGSU SIMCERE PHARMACEUTICAL CO., LTD., priority 2021, published 2024)
